Earlier results on one substance are cited in patent publication US20260091056A1, “COMPOSITIONS FOR CONTROLLING ODOR AND ITCH AND METHODS OF AND DEVICES FOR ADMINISTERING SAME” (Vireo Systems, Inc., priority 2020, published 2026).

The conditions of this data set: at 25° C.

For the substance boric acid, the pKa value is given as roughly 9.14.
